ChEMBL document CHEMBL3861982, “Three new alkaloids from Veratrum grandiflorum Loes with inhibition activities on Hedgehog pathway” (Bioorg Med Chem Lett, 2016)

Test: Inhibition of hedgehog signaling pathway in mouse Shh Light2 cells assessed as inhibition of sonic hedgehog-induced GLI1-mediated transcriptional activity measured after 30 hrs by dual luciferase reporter gene assay
Type: cell-based
Conditions: Shh Light2, 30 h

Structure (SMILES) | IC50 [nM]
Cc1c([C@H](C)[C@H]2CC[C@H](C)CN2)ccc2c1C[C@H]1[C@H]2CC=C2C[C@@H](O)CC[C@@]21C | 630
C/C=C(/C)C(=O)O[C@H]1CC[C@@]2(C)[C@@H]3CC[C@H]4[C@]5(O)[C@@H](O)[C@H](O)[C@H]6[C@@H](CN7C[C@@H](C)CC[C@H]7[C@@]6(C)O)[C@@H]5C[C@@]42O[C@@]13O | > 25000
CC(=O)O[C@@H]1C[C@H]2[C@@H](CC=C3C[C@@H](O[C@@H]4O[C@H](CO)[C@@H](O)[C@H](O)[C@H]4O)CC[C@@]32C)[C@@H]2CC[C@H]([C@H](C)C3=NC[C@H](C)CC3=O)[C@@]12C | 1110
CC(=O)O[C@@H]1C[C@H]2[C@@H](CC=C3C[C@@H](O)CC[C@@]32C)[C@@H]2CC[C@H]([C@@](C)(O)C3=NC[C@H](C)CC3)[C@@]12C | 3110
CC(=O)O[C@@H]1C[C@H]2[C@@H](CC=C3C[C@@H](O[C@@H]4O[C@H](CO)[C@@H](O)[C@H](O)[C@H]4O)CC[C@@]32C)[C@@H]2CC[C@H]([C@@](C)(O)C3=NC[C@H](C)CC3)[C@@]12C | 2780
CC1=C2C[C@H]3[C@@H](CC=C4C[C@@H](O)CC[C@@]43C)[C@@H]2CC[C@]12O[C@@H]1C[C@H](C)CN[C@H]1[C@H]2C [CYCLOPAMINE] | 74.1
C[C@H]1CC[C@@H]2[C@@H](C)[C@H]3[C@H](C[C@H]4[C@@H]5CC=C6C[C@@H](O)CC[C@]6(C)[C@H]5CC[C@]34C)N2C1 | > 25000
CC(=O)O[C@H]1C[C@H]2[C@@H]3CC=C4C[C@@H](O[C@@H]5O[C@H](CO)[C@@H](O)[C@H](O)[C@H]5O)CC[C@]4(C)[C@H]3CC[C@]2(C)[C@H]1[C@H](C)C1=NC[C@H](C)CC1 | > 25000
